What was measured:
[1] = The drug is tested on WLS-310 corresponding to human gut metagenome with ENA study accession number: PRJEB37062 and ENA sample accession number: ERS12561785 for biotransformation under anaerobic condition. The drug concentrations were measured over 9 timepoints collected between 0 and 24 hours of incubation by liquid-chromatography-coupled mass spectrometry (LC–MS); conditions: 2 µM
[2] = human gut metagenome, 24 h, 2 µM
[3] = human gut metagenome, 24 h, 2 µM; remark: listed apart in the source
[4] = human gut metagenome, 24 h, 2 µM; remark: listed apart in the source
[5] = The drug is tested on Z-008 corresponding to metagenome with ENA study accession number: PRJEB37062 and ENA sample accession number: ERS12561808 for biotransformation under anaerobic condition. The drug concentrations were measured over 9 timepoints collected between 0 and 24 hours of incubation by liquid-chromatography-coupled mass spectrometry (LC–MS); conditions: 2 µM
[6] = The drug is tested on WLS-010 corresponding to human gut metagenome with ENA study accession number: PRJEB37062 and ENA sample accession number: ERS12561743 for biotransformation under anaerobic condition. The drug concentrations were measured over 9 timepoints collected between 0 and 24 hours of incubation by liquid-chromatography-coupled mass spectrometry (LC–MS); conditions: 2 µM
[7] = human gut metagenome, 24 h, 2 µM; remark: listed apart in the source
[8] = The drug is tested on WLS-077 corresponding to human gut metagenome with ENA study accession number: PRJEB37062 and ENA sample accession number: ERS12561750 for biotransformation under anaerobic condition. The drug concentrations were measured over 9 timepoints collected between 0 and 24 hours of incubation by liquid-chromatography-coupled mass spectrometry (LC–MS); conditions: 2 µM
[9] = The drug is tested on Z-012 corresponding to metagenome with ENA study accession number: PRJEB37062 and ENA sample accession number: ERS12561812 for biotransformation under anaerobic condition. The drug concentrations were measured over 9 timepoints collected between 0 and 24 hours of incubation by liquid-chromatography-coupled mass spectrometry (LC–MS); conditions: 2 µM
[10] = The drug is tested on Z-014 corresponding to rat gut metagenome with ENA study accession number: PRJEB37062 and ENA sample accession number: ERS12561814 for biotransformation under anaerobic condition. The drug concentrations were measured over 9 timepoints collected between 0 and 24 hours of incubation by liquid-chromatography-coupled mass spectrometry (LC–MS); conditions: 2 µM
[11] = human gut metagenome, 24 h, 2 µM; remark: listed apart in the source
[12] = human gut metagenome, 24 h, 2 µM; remark: listed apart in the source
[13] = The drug is tested on Z-026 corresponding to metagenome with ENA study accession number: PRJEB37062 and ENA sample accession number: ERS12561825 for biotransformation under anaerobic condition. The drug concentrations were measured over 9 timepoints collected between 0 and 24 hours of incubation by liquid-chromatography-coupled mass spectrometry (LC–MS); conditions: 2 µM
[14] = human gut metagenome, 24 h, 2 µM; remark: listed apart in the source
[15] = human gut metagenome, 24 h, 2 µM; remark: listed apart in the source
[16] = The drug is tested on WLS-098 corresponding to human gut metagenome with ENA study accession number: PRJEB37062 and ENA sample accession number: ERS12561754 for biotransformation under anaerobic condition. The drug concentrations were measured over 9 timepoints collected between 0 and 24 hours of incubation by liquid-chromatography-coupled mass spectrometry (LC–MS); conditions: 2 µM
[17] = human gut metagenome, 24 h, 2 µM; remark: listed apart in the source
[18] = The drug is tested on Z-006 corresponding to mouse gut metagenome with ENA study accession number: PRJEB37062 and ENA sample accession number: ERS12561806 for biotransformation under anaerobic condition. The drug concentrations were measured over 9 timepoints collected between 0 and 24 hours of incubation by liquid-chromatography-coupled mass spectrometry (LC–MS); conditions: 2 µM
[19] = The drug is tested on Z-003 corresponding to pig gut metagenome with ENA study accession number: PRJEB37062 and ENA sample accession number: ERS12561803 for biotransformation under anaerobic condition. The drug concentrations were measured over 9 timepoints collected between 0 and 24 hours of incubation by liquid-chromatography-coupled mass spectrometry (LC–MS); conditions: 2 µM
[20] = The drug is tested on Z-010 corresponding to metagenome with ENA study accession number: PRJEB37062 and ENA sample accession number: ERS12561810 for biotransformation under anaerobic condition. The drug concentrations were measured over 9 timepoints collected between 0 and 24 hours of incubation by liquid-chromatography-coupled mass spectrometry (LC–MS); conditions: 2 µM
Note: call rule not given here.

Structure (SMILES) | Bacterial Biotransformation [1] | Bacterial Biotransformation [2] | Bacterial Biotransformation [3] | Bacterial Biotransformation [4] | Bacterial Biotransformation [5] | Bacterial Biotransformation [6] | Bacterial Biotransformation [7] | Bacterial Biotransformation [8] | Bacterial Biotransformation [9] | Bacterial Biotransformation [10] | Bacterial Biotransformation [11] | Bacterial Biotransformation [12] | Bacterial Biotransformation [13] | Bacterial Biotransformation [14] | Bacterial Biotransformation [15] | Bacterial Biotransformation [16] | Bacterial Biotransformation [17] | Bacterial Biotransformation [18] | Bacterial Biotransformation [19] | Bacterial Biotransformation [20]
CCc1nc(N)nc(N)c1-c1ccc(Cl)cc1 [PYRIMETHAMINE] | Compound NOT metabolized | Compound NOT metabolized | Compound NOT metabolized | Compound NOT metabolized | Compound NOT metabolized | Compound NOT metabolized | Compound NOT metabolized | Compound NOT metabolized | Compound NOT metabolized | Compound NOT metabolized | Compound metabolized | Compound metabolized | Compound NOT metabolized | Compound NOT metabolized | Compound NOT metabolized | Compound metabolized | Compound NOT metabolized | Compound NOT metabolized | Compound NOT metabolized | Compound NOT metabolized
COc1ccccc1OCC(O)CN1CCN(CC(=O)Nc2c(C)cccc2C)CC1 (stereo not given) [RANOLAZINE] | Compound NOT metabolized | Compound NOT metabolized | Compound NOT metabolized | Compound NOT metabolized | Compound NOT metabolized | Compound NOT metabolized | Compound NOT metabolized | Compound NOT metabolized | Compound NOT metabolized | Compound NOT metabolized | Compound NOT metabolized | Compound NOT metabolized | Compound NOT metabolized | Compound NOT metabolized | Compound NOT metabolized | Compound NOT metabolized | Compound NOT metabolized | Compound NOT metabolized | Compound metabolized | Compound NOT metabolized
CN(C)CCc1c[nH]c2ccc(Cn3cncn3)cc12.O=C(O)c1ccccc1 [RIZATRIPTAN BENZOATE] | Compound NOT metabolized | Compound NOT metabolized | Compound NOT metabolized | Compound NOT metabolized | Compound NOT metabolized | Compound NOT metabolized | Compound NOT metabolized | Compound NOT metabolized | Compound NOT metabolized | Compound NOT metabolized | Compound NOT metabolized | Compound NOT metabolized | Compound NOT metabolized | Compound NOT metabolized | Compound NOT metabolized | Compound NOT metabolized | Compound NOT metabolized | Compound NOT metabolized | Compound NOT metabolized | Compound NOT metabolized
CCCc1nn(C)c2c(=O)[nH]c(-c3cc(S(=O)(=O)N4CCN(C)CC4)ccc3OCC)nc12.O=C(O)CC(O)(CC(=O)O)C(=O)O [SILDENAFIL CITRATE] | Compound metabolized | Compound metabolized | Compound NOT metabolized | Compound NOT metabolized | Compound NOT metabolized | Compound NOT metabolized | Compound NOT metabolized | Compound NOT metabolized | Compound NOT metabolized | Compound NOT metabolized | Compound metabolized | Compound NOT metabolized | Compound NOT metabolized | Compound metabolized | Compound NOT metabolized | Compound NOT metabolized | Compound NOT metabolized | Compound NOT metabolized | Compound NOT metabolized | Compound NOT metabolized
COc1ccc2[nH]c([S+]([O-])Cc3ncc(C)c(OC)c3C)nc2n1 (stereo not given) [TENATOPRAZOLE] | Compound metabolized | Compound metabolized | Compound NOT metabolized | Compound metabolized | Compound metabolized | Compound metabolized | Compound metabolized | Compound NOT metabolized | Compound metabolized | Compound metabolized | Compound NOT metabolized | Compound NOT metabolized | Compound metabolized | Compound NOT metabolized | Compound metabolized | Compound metabolized | Compound NOT metabolized | Compound metabolized | Compound metabolized | Compound metabolized
